Earlier results, collected in US20100047273A1, “Coxsackie B virus and type 1 diabetes” (priority 2007, published 2010).

Tested on: coxsackie B4 virus
Conditions: reported in references 4 and 5

SMILES: Cc1cc(CCCOc2c(C)cc(-c3noc(C(F)(F)F)n3)cc2C)on1 [pleconaril]
- activity against coxsackie B4 virus: active
